Data from patent US20070111118A1, “Electrophotographic photoconductor and image-forming apparatus” (priority 2005, published 2007).

Experiment: Solubility of the hole-transfer agent in triglyceride oleate
Assay type: physicochemical
Conditions: 25° C., g per 100 g of triglyceride oleate
From the text: Here, the term “solubility in triglyceride oleate (% by weight)” means the amount of a solvent (hole-transfer agent) (g) with reference to 100 g of triglyceride oleate.

Row | Compound | HTM Solubility [w %]
1 | CC(C)c1ccc(N(c2ccccc2)c2cccc(N(c3ccccc3)c3ccc(C(C)C)cc3)c2)cc1 [HTM-1] | 11.1
2 | CCc1cccc(C)c1N(c1ccccc1)c1ccc(/C=C/c2ccc(/C=C/c3ccc(N(c4ccccc4)c4c(C)cccc4CC)cc3)cc2)cc1 [HTM-8] | 2.1
3 | Cc1ccccc1N(c1ccc(-c2ccc(N(c3ccccc3C)c3ccccc3/C=C/c3ccccc3)cc2)cc1)c1ccccc1/C=C/c1ccccc1 [HTM-9] | 37.0
4 | CCCCc1ccc(N(c2ccc(C)cc2)c2c(N(c3ccc(C)cc3)c3ccc(CCCC)cc3)c3ccccc3c3ccccc23)cc1 [HTM-10] | 2.8
